Experiments:
hAChE = hAChE (Homo sapiens, UniProt P22303); test: biochemical; conditions: for IC50: Mean ± SD from 3-5 assays, read-out: IC50 (nM) for cholinesterase hAChE; for inhibition at 1 µM: compound at 1 μM, read-out: inhibition of hAChE in primary screening
Protocol: 50 μL of hAChE (0.02 unit/mL) or hBChE (0.02 unit/mL) were incubated with 10 μL of the compound in 96-well plates at 37°C for 6 min. Subsequently, 30 μL of a substrate solution containing acetylthiocholine iodide (ATCI) or butyrylthiocholine iodide (BTCI) at a concentration of 0.01 M was added, and the mixture was further incubated at 37°C for an additional duration of 12 min.

hBuChE = hBuChE (Homo sapiens, UniProt P06276); test: Ellman's assay, hBuChE inhibition; type: biochemical; conditions: for IC50: Mean ± SD from 3-5 assays, read-out: IC50 (nM) for cholinesterase hBuChE; for inhibition at 1 µM: compound at 1 μM, read-out: inhibition of hBuChE in primary screening
Chain of hBuChE (P06276 29-602): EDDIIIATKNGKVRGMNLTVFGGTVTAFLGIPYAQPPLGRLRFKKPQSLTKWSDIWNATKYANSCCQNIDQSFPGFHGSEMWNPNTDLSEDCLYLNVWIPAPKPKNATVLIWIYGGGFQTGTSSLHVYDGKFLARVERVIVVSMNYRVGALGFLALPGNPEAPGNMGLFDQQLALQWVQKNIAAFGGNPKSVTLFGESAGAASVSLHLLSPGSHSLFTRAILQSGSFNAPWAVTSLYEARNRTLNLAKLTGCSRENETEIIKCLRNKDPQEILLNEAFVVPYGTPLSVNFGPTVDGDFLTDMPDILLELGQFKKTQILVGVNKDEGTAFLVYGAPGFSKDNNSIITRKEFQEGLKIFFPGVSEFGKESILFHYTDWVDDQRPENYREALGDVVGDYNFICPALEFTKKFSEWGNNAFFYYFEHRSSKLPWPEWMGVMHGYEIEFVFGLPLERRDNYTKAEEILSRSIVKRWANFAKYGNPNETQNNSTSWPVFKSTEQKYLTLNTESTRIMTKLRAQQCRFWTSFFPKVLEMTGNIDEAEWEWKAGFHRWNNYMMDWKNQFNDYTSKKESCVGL
Protocol: The Ellman’s assay was utilized to assess the inhibitory potential of novel bis(7)-harmine derivatives against hAChE and hBuChE. 50 μL of hAChE (0.02 unit/mL) or hBChE (0.02 unit/mL) were incubated with 10 μL of the compound in 96-well plates at 37°C for 6 min. Subsequently, 30 μL of a substrate solution containing acetylthiocholine iodide (ATCI) or butyrylthiocholine iodide (BTCI) at a concentration of 0.01 M was added, and the mixture was further incubated at 37°C for an additional duration of 12 min. Finally, the activity was measured by adding 150 μL of a solution containing 5,5′−dithiobis (2-nitrobenzoic acid) (DTNB) at a concentration of 0.01 M, followed by measuring absorbance at a wavelength of 415 nm using an Evolution 300 PC UV-Vis Spectrophotometer.

recombinant hMAO-A = target: T1, recombinant hMAO-A (Homo sapiens, UniProt P21397); test: biochemical; conditions: for IC50: mean ± SD, read-out: IC50 (nM) for monoamine oxidases hMAO-A; for inhibition at 1 µM: compound at 1 μM, read-out: inhibition of hMAO-A in primary screening
T1 construct: purchased Sigma-Aldrich
T1 sequence (P21397 1-527): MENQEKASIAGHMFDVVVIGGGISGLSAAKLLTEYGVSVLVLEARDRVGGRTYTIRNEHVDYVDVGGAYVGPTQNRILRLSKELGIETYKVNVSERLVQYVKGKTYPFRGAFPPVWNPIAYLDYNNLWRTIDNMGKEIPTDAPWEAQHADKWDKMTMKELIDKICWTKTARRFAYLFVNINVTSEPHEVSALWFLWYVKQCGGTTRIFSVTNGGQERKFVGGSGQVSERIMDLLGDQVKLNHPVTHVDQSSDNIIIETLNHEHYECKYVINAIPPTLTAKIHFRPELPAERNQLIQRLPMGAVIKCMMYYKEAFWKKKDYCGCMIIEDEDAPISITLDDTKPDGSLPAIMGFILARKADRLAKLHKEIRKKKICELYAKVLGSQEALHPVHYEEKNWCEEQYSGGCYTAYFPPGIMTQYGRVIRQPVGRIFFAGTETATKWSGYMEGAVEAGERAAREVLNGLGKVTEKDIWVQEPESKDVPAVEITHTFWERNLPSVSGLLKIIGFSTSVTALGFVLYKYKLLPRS
Protocol: (§1) Briefly, the compounds under investigation and the reference inhibitor were preincubated with kynuramine at 37°C for 10 min in 96-well microplates. […] The enzymatic reactions were terminated by adding 400 μL of 2 N NaOH and 1,000 μL of water, followed by centrifugation at 16,000 g for 10 min. Subsequently, the concentrations of MAOs that produced 4-hydroxyquinoline were determined by measuring the fluorescence of the supernatant using a Varioskan Flash Multimode Reader ([…]) with excitation and emission wavelengths set at 310 nm and 400 nm, respectively. The IC50 values were calculated from dose-response curves and expressed as the mean ± standard deviation. These values were determined based on at least three independent experiments, each performed in triplicate.

recombinant hMAO-B = target: T2, recombinant hMAO-B (Homo sapiens, UniProt P27338); test: biochemical; conditions: for IC50: mean ± SD, read-out: IC50 (nM) for monoamine oxidases hMAO-B; for inhibition at 1 µM: compound at 1 μM, read-out: inhibition of hMAO-B in primary screening
T2 construct: purchased Sigma-Aldrich
T2 sequence (P27338 1-520): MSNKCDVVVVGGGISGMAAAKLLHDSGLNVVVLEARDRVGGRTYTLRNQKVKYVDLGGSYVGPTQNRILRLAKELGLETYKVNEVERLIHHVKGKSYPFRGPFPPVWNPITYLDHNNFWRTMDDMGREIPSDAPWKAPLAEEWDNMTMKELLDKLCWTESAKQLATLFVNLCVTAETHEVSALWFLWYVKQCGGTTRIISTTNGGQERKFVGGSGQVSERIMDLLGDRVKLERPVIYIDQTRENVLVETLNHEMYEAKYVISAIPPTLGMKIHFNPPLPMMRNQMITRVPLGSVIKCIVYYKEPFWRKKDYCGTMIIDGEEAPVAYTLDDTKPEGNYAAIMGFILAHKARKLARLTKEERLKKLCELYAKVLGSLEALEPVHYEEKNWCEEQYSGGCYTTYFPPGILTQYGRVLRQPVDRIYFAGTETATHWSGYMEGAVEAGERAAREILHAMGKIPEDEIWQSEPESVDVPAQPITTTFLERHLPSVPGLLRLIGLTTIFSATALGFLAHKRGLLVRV
Protocol: as §1

Aβ 1−42 = Aβ 1−42 (Homo sapiens, UniProt P05067); test: Thioflavin T fluorescence assay, Aβ 1−42 self-aggregation; type: biochemical; conditions: for inhibition percent ratio of self-induced Aβ 1-42 aggregation: compound at 20 μM; for IC50: Aβ 1-42 20 μM, 37°C, 24 h
Chain of Aβ 1−42 (P05067 672-713 limits assumed): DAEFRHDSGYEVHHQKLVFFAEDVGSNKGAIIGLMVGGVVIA
Protocol: The thioflavin T (Th-T) fluorescence assay was used to assess the inhibition of Aβ 1−42 self-aggregation. […] Subsequently, the reaction was terminated to a final volume of 200 μL using Th-T (10 μM) solution.

Chain of hAChE (P22303 32-614): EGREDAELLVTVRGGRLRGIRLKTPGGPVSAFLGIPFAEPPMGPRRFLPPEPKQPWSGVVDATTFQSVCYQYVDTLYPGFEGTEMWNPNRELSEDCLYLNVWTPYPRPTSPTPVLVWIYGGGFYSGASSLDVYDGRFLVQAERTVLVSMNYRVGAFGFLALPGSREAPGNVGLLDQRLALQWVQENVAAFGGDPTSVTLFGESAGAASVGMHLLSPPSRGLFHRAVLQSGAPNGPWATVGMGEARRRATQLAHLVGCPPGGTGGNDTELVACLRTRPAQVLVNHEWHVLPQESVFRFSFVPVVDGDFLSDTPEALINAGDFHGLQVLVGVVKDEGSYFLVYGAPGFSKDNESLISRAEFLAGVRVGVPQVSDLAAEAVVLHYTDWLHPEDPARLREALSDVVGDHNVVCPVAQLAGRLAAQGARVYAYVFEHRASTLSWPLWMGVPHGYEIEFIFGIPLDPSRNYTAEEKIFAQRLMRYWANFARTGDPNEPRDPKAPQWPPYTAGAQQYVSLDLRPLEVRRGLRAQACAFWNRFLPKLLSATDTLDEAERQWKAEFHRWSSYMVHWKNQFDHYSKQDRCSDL

Structure (SMILES) | S.I. Selectivity index IC50(hBuChE)/IC50(hAChE) (hAChE) | IC50 (hAChE) | IC50 (hBuChE) | S.I. Selectivity index IC50(hMAO-B)/IC50(hMAO-A) (recombinant hMAO-A) | IC50 (recombinant hMAO-A) | IC50 (recombinant hMAO-B) | inhibition percent ratio of self-induced Aβ 1-42 aggregation (Aβ 1−42) | inhibition at 1 µM (hAChE) | inhibition at 1 µM (hBuChE) | inhibition at 1 µM (recombinant hMAO-A) | inhibition at 1 µM (recombinant hMAO-B) | IC50 (Aβ 1−42)
CCCn1c2cc(OCCCCCCOc3ccc4c5ccnc(C)c5n(CCC)c4c3)ccc2c2ccnc(C)c21 [Compound 6c, 1,6-bis ((1-methyl-9-propyl-9H-pyrido [3,4-b]indol-7-yl)oxy)hexane] | 12.1 | 82.1 ± 6.9 nM | 994 ± 73.4 nM | 25.2 | 21 ± 1.18 nM | 529 ± 38.7 nM | 35.8% | – | – | – | – | –
Cc1nccc2c3ccc(OCCCCOc4ccc5c6ccnc(C)c6n(C)c5c4)cc3n(C)c12 [Compound 4a, 1,4-bis ((1,9-dimethyl-9H-pyrido [3,4-b]indol-7-yl)oxy)butane] | – | – | – | – | – | – | 39.3% | 36.3% | 30.5% | 41.5% | 13.8% | –
Cc1nccc2c3ccc(OCCCCCOc4ccc5c6ccnc(C)c6n(C)c5c4)cc3n(C)c12 [Compound 5a, 1,5-bis ((1,9-dimethyl-9H-pyrido [3,4-b]indol-7-yl)oxy)pentane] | 0.3 | 827 ± 41.5 nM | 256 ± 15.7 nM | >4.1 | 241 ± 13.8 nM | – | 40.6% | – | – | – | 25.6% | –
C=CCn1c2cc(OCCCCOc3ccc4c5ccnc(C)c5n(CC=C)c4c3)ccc2c2ccnc(C)c21 [Compound 4d, 1,4-bis ((9-allyl-1-methyl-9H-pyrido [3,4-b]indol-7-yl)oxy)butane] | – | – | – | – | – | – | 35.5% | 45.6% | 32.9% | 49.3% | 30.3% | –
CCn1c2cc(OCCCCCCCOc3ccc4c5ccnc(C)c5n(CC)c4c3)ccc2c2ccnc(C)c21 [Compound 7b, 1,7-bis ((9-ethyl-1-methyl-9H-pyrido [3,4-b]indol-7-yl)oxy)heptane] | >2.6 | 386 ± 26.8 nM | – | 0.5 | 150 ± 12.4 nM | 79.8 ± 4.9 nM | 29.6% | – | 36.5% | – | – | –
Cc1nccc2c3ccc(OCCCCCCOc4ccc5c6ccnc(C)c6n(C)c5c4)cc3n(C)c12 [Compound 6a, 1,6-bis ((1,9-dimethyl-9H-pyrido [3,4-b]indol-7-yl)oxy)hexane] | 0.7 | 493 ± 30.3 nM | 331 ± 21.5 nM | 7.1 | 123 ± 7.2 nM | 863 ± 61.3 nM | – | – | – | – | – | 19.8 ± 1.1 µM
Cc1nccc2c3ccc(OCCCCCCCCOc4ccc5c6ccnc(C)c6n(C)c5c4)cc3n(C)c12 [Compound 8a, 1,8-bis ((1,9-dimethyl-9H-pyrido [3,4-b]indol-7-yl)oxy)octane] | – | – | – | 10.0 | 95.2 ± 4.9 nM | 954 ± 49.8 nM | – | 42.2% | 39.1% | – | – | 16.5 ± 0.4 µM
CCCn1c2cc(OCCCCCOc3ccc4c5ccnc(C)c5n(CCC)c4c3)ccc2c2ccnc(C)c21 [Compound 5c, 1,5-bis ((1-methyl-9-propyl-9H-pyrido [3,4-b]indol-7-yl)oxy)pentane] | >13.7 | 73.8 ± 4.28 nM | – | – | – | – | 29.4% | – | 45.6% | 39.5% | 27.5% | –
CCCn1c2cc(OCCCCOc3ccc4c5ccnc(C)c5n(CCC)c4c3)ccc2c2ccnc(C)c21 [Compound 4c, 1,4-bis ((1-methyl-9-propyl-9H-pyrido [3,4-b]indol-7-yl)oxy)butane] | 10.2 | 68 ± 5.1 nM | 694 ± 43.2 nM | – | – | – | 33.2% | – | – | 48.6% | 17.8% | –
CCn1c2cc(OCCCCCCOc3ccc4c5ccnc(C)c5n(CC)c4c3)ccc2c2ccnc(C)c21 [Compound 6b, 1,6-bis ((9-ethyl-1-methyl-9H-pyrido [3,4-b]indol-7-yl)oxy)hexane] | 0.1 | 652 ± 35.8 nM | 86.8 ± 5.3 nM | >1.1 | 893 ± 59.3 nM | – | 40.2% | – | – | – | 41.2% | –
C=CCn1c2cc(OCCCCCCCOc3ccc4c5ccnc(C)c5n(CC=C)c4c3)ccc2c2ccnc(C)c21 [Compound 7d, 1,7-bis ((9-allyl-1-methyl-9H-pyrido [3,4-b]indol-7-yl)oxy)heptane] | – | 896 ± 65.4 nM | 23.7 ± 1.3 nM | 0.2 | 74.6 ± 5.2 nM | 12.6 ± 0.76 nM | – | – | – | – | – | 17.1 ± 0.6 µM
C=CCn1c2cc(OCCCCCOc3ccc4c5ccnc(C)c5n(CC=C)c4c3)ccc2c2ccnc(C)c21 [Compound 5d, 1,5-bis ((9-allyl-1-methyl-9H-pyrido [3,4-b]indol-7-yl)oxy)pentane] | >3.4 | 288 ± 21.3 nM | – | – | – | – | 43.6% | – | 41.2% | 41.1% | 29.8% | –
CCCn1c2cc(OCCCCCCCOc3ccc4c5ccnc(C)c5n(CCC)c4c3)ccc2c2ccnc(C)c21 [Compound 7c, 1,7-bis ((1-methyl-9-propyl-9H-pyrido [3,4-b]indol-7-yl)oxy)heptane] | >25.6 | 39.2 ± 2.9 nM | – | >111.1 | 9.1 ± 0.6 nM | – | – | – | 44.8% | – | 34.1% | 13.3 ± 0.6 µM
CCn1c2cc(OCCCCCOc3ccc4c5ccnc(C)c5n(CC)c4c3)ccc2c2ccnc(C)c21 [Compound 5b, 1,5-bis ((9-ethyl-1-methyl-9H-pyrido [3,4-b]indol-7-yl)oxy)pentane] | 8.1 | 115 ± 7.36 nM | 928 ± 62.1 nM | – | – | – | 31.8% | – | – | 42.4% | 33.7% | –
CCn1c2cc(OCCCCOc3ccc4c5ccnc(C)c5n(CC)c4c3)ccc2c2ccnc(C)c21 [Compound 4b, 1,4-bis ((9-ethyl-1-methyl-9H-pyrido [3,4-b]indol-7-yl)oxy)butane] | >9.9 | 101 ± 6.8 nM | – | >1.4 | 686 ± 43.5 nM | – | 27.6% | – | 36.7% | – | 28.6% | –

Source: publication PMC11813896, “Bis(7)-harmine derivatives as potential multi-target anti-Alzheimer agents” (Frontiers in Chemistry, 2025)
